assay: recombinant barcode read abundance after kanamycin selection (control-corrected) (log10(CPM+1)); higher = more efficient recombination; sequences stand for … in AGTGCAGAGAAAATCGGCCAGTTTTCTCTGCCTGCAGTCCGCATGCCGT…AGATTTATGCAGCGGACTGCCTTTCTCCCAAAGTGATAAACCGGACAGTATCATGGACCGGTTTTCCCGGTAATCCGTATTTGCAAGGTTGGTTTCACT; site = the 11-nt target
Procedure, shortened: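 Recombination efficiency draws on barcodes counted at recombinant junctions in a pooled E. coli screen of targets paired with IS621 bridge RNA target-binding loops. The counts were converted to counts per million, averaged and corrected against the chloramphenicol/ampicillin LB agar control, then reported as log10(CPM+1). Selection plates held chloramphenicol/ampicillin/kanamycin with 0.1 mM IPTG, with two replicates per condition.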
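Note: IS621 recombinase and bridge RNA in Escherichia coli cells.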

| Sequence | recombinant barcode read abundance (log10) |
| --- | --- |
| CTATGGACTTGGGTTCTAACCTGTTGCAC (site CTATGGACTCT) | 0.242 |
| TATCCATCTTGGGTTCTAACCTGTTGCCT (site TATCCATCTAG) | 0.618 |
| CTACCACCTTGGGTTCTAACCTGTTGCCT (site CTACCATCTAG) | 0.214 |
| AGCCCTCCTTGGGTTCTAACCTGTTGCTC (site AGCCCTCCTTA) | 0.0233 |
| ATTCCATCTTGGGTTCTAACCTGTTGCCT (site ATGCCATCTAG) | 0.12 |
| CGGGCCTCTTGGGTTCTAACCTGTTGCTA (site CGGGCCTCTCA) | 0 |
| TACTATCCTTGGGTTCTAACCTGTTGCCT (site TACTATTCTAG) | 0.162 |
| GTCACCTCTTGGGTTCTAACCTGTTGCCT (site GTCTCCTCTAG) | 0.105 |
| TACGCTCCTTGGGTTCTAACCTGTTGCTT (site TACGCTCCTAA) | 0.243 |
| CTGGTCACTTGGGTTCTAACCTGTTGCGG (site CTGGTCACTCC) | 2.74 |
| TGATATGCTTGGGTTCTAACCTGTTGCCT (site TGATATGCTAG) | 0.463 |
| TCCACAGCTTGGGTTCTAACCTGTTGCCT (site TCCACAGCTAG) | 0.784 |
| GACAGTACTTGGGTTCTAACCTGTTGCCT (site CACAGTACTAG) | 0.306 |
| TTAGATCCTTGGGTTCTAACCTGTTGCAT (site TTAGATCCTAT) | 1.62 |
| ATGGCGCCTTGGGTTCTAACCTGTTGCCT (site ACGGCGCCTAG) | 0.846 |
| TCCAACCCTTGGGTTCTAACCTGTTGCGG (site TCAAACCCTCC) | 0.0107 |
| TCAAGACCTTGGGTTCTAACCTGTTGCCG (site TCAAGACCTCG) | 0.461 |
| ATCAAAGCTTGGGTTCTAACCTGTTGCCT (site ATCAAAGCTAG) | 0.154 |
| TGGAGCCCTTGGGTTCTAACCTGTTGCTT (site TGGAGTCCTAA) | 0.136 |
| GTGTCTCCTTGGGTTCTAACCTGTTGCAT (site GTGTGTCCTAT) | 0.457 |
| TGAGTCCCTTGGGTTCTAACCTGTTGCCT (site TGAGTCCCTAG) | 2.03 |
| CACAGTACTTGGGTTCTAACCTGTTGCCT (site CACAGTACTAG) | 0.901 |

| Sequence | recombinant barcode read abundance (log10) |
| --- | --- |
| CTATTGTCTTGGGTTCTAACCTGTTGCGA (site CTATTGTCTTC) | 2.4 |
| ATTGCTACTTGGGTTCTAACCTGTTGCCA (site ATTGCTACTTG) | 0.122 |
| CACCGAGCTTGGGTTCTAACCTGTTGCCG (site CAGCGAGCTCG) | 0.534 |
| AAAATGCCTTGGGTTCTAACCTGTTGCCT (site CAAATGTCTAG) | 0.0967 |
| CTCTTGGCTTGGGTTCTAACCTGTTGCCT (site CTCTGGGCTAG) | 0.0739 |
| GAGAGGTCTTGGGTTCTAACCTGTTGCAT (site GAGAGGTCTAC) | 0.435 |
| TATTATACTTGGGTTCTAACCTGTTGCAT (site TATTATACTAG) | 0.0602 |
| TCGGAGTCTTGGGTTCTAACCTGTTGCCT (site TCGGAGTCTAA) | 0.128 |
| ATATGATCTTGGGTTCTAACCTGTTGCCT (site ATATTATCTTG) | 0.145 |
| TATACTACTTGGGTTCTAACCTGTTGCCT (site TATACTACTAG) | 0.0122 |
| TCGCACTCTTGGGTTCTAACCTGTTGCCT (site TCCCACTCTAG) | 0.22 |
| TGAAATGCTTGGGTTCTAACCTGTTGCCT (site TGACATGCTAG) | 0.0158 |
| CAAACAACTTGGGTTCTAACCTGTTGCCT (site CAAACATCTAG) | 0.133 |
| CCTACAGCTTGGGTTCTAACCTGTTGCCT (site CCTACACCTAG) | 0.37 |
| CTATTAGCTTGGGTTCTAACCTGTTGCCG (site CTAGTAGCTCG) | 0.418 |
| TCGGAGTCTTGGGTTCTAACCTGTTGCCT (site TCGGAGTCTAG) | 2.23 |
| TGTGGAGCTTGGGTTCTAACCTGTTGCCG (site TGTTGAGCTCG) | 0.00933 |
| ACATGGACTTGGGTTCTAACCTGTTGCAT (site ACATGCACTAT) | 0.115 |
| TTGAGTCCTTGGGTTCTAACCTGTTGCTA (site TTGAGTCCTTA) | 0.488 |
| CTTCAGGCTTGGGTTCTAACCTGTTGCCT (site CTTGAGACTAG) | 0.0551 |
| ACTCACCCTTGGGTTCTAACCTGTTGCGG (site CTATTAACTTA) | 0.126 |
| GACAGACCTTGGGTTCTAACCTGTTGCCT (site AACAGACCTAG) | 0.83 |

| Sequence | recombinant barcode read abundance (log10) |
| --- | --- |
| GCAAGTCCTTGGGTTCTAACCTGTTGCGT (site CATGCCTCTCG) | 0.0651 |
| GTGCGGACTTGGGTTCTAACCTGTTGCGT (site GTGCGGACTAC) | 2.06 |
| TGGGGCCCTTGGGTTCTAACCTGTTGCCT (site TGGGGCCCTAG) | 1.66 |
| GACCTACCTTGGGTTCTAACCTGTTGCCT (site GACTTACCTAG) | 0.359 |
| CTAAGCGCTTGGGTTCTAACCTGTTGCCT (site CTAAGCGCTAG) | 0.346 |
| TCAAACCCTTGGGTTCTAACCTGTTGCGG (site TCAAACCCTCC) | 1.6 |
| CGTAAGTCTTGGGTTCTAACCTGTTGCCT (site TATAAGTCTAG) | 0.0991 |
| TTAGACTCTTGGGTTCTAACCTGTTGCTA (site TTAGACTCTTG) | 1.25 |
| GATCGATCTTGGGTTCTAACCTGTTGCGT (site GATCGATCTAG) | 0.284 |
| TAGGCTCCTTGGGTTCTAACCTGTTGCCG (site TAGGCTCCTCG) | 0.412 |
| GTGACCTCTTGGGTTCTAACCTGTTGCCT (site GTGACCTCTAG) | 1.49 |
| ACAAACCCTTGGGTTCTAACCTGTTGCTA (site CTGGCAGCTAG) | 0.85 |
| CCTAGAGCTTGGGTTCTAACCTGTTGCCT (site CCTAGACCTAG) | 0.241 |
| GGTGCTCCTTGGGTTCTAACCTGTTGCAA (site GGTGCTCCTAT) | 0.0718 |
| CGGAGAGCTTGGGTTCTAACCTGTTGCCT (site CGGAGAGCTAG) | 1.83 |
| CCACGGACTTGGGTTCTAACCTGTTGCCT (site CCACGGACTAG) | 0.651 |
| AGGAACTCTTGGGTTCTAACCTGTTGCCT (site CGGAACTCTAG) | 0.573 |
| TAAGTACCTTGGGTTCTAACCTGTTGCCT (site CAAGTACCTAG) | 0.517 |
| TGTAGTCCTTGGGTTCTAACCTGTTGCCT (site TGTAGTCCTAT) | 0.348 |
| CTCAGGTCTTGGGTTCTAACCTGTTGCCT (site CTCAGGTCTTG) | 0.197 |
| TCGCACTCTTGGGTTCTAACCTGTTGCCT (site TCTCACTCTAG) | 0.117 |
| TATACTACTTGGGTTCTAACCTGTTGCTT (site TATACTACTAA) | 0.0375 |

| Sequence | recombinant barcode read abundance (log10) |
| --- | --- |
| AACGCTCCTTGGGTTCTAACCTGTTGCCT (site ACCGCTCCTAG) | 0 |
| CTCTCTCCTTGGGTTCTAACCTGTTGCCT (site CTCTCTCCTAG) | 0.261 |
| CTCCGTCCTTGGGTTCTAACCTGTTGCTT (site CTCCGGCCTAA) | 0.589 |
| AATGGGACTTGGGTTCTAACCTGTTGCGA (site AATGGGACTCA) | 0.331 |
| ATGGCGCCTTGGGTTCTAACCTGTTGCCT (site AGGGCGCCTAG) | 0.183 |
| GCTTCTTCTTGGGTTCTAACCTGTTGCCT (site GTTTCTTCTAG) | 0.0974 |
| GGAGCAGCTTGGGTTCTAACCTGTTGCCT (site GGAGCACCTAG) | 0.223 |
| AACAGCTCTTGGGTTCTAACCTGTTGCCT (site AACAGCTCTAG) | 1.75 |
| TAGGACTCTTGGGTTCTAACCTGTTGCAT (site CCTCGTCCTGG) | 0.0204 |
| TGATTGACTTGGGTTCTAACCTGTTGCTT (site TGATTGACTAA) | 0.0769 |
| CAGGCGTCTTGGGTTCTAACCTGTTGCCT (site CAGGCGTCTAG) | 0.59 |
| CAGTAATCTTGGGTTCTAACCTGTTGCCT (site CAGTACTCTAG) | 0.138 |
| GATCCATCTTGGGTTCTAACCTGTTGCCT (site GCTCCATCTAG) | 0.251 |
| ACAAGGCCTTGGGTTCTAACCTGTTGCAT (site ACAAGGCCTAT) | 1.38 |
| CTCTCGTCTTGGGTTCTAACCTGTTGCGT (site CTCTCGTCTAG) | 0.291 |
| CAGGCGCCTTGGGTTCTAACCTGTTGCCT (site CAGGCGTCTAG) | 0.527 |
| CGGATCCCTTGGGTTCTAACCTGTTGCCT (site CGGATCCCTAG) | 1.39 |
| TAGCCGGCTTGGGTTCTAACCTGTTGCCT (site TAGCCGGCTAA) | 0.264 |
| CGGAGAGCTTGGGTTCTAACCTGTTGCCT (site CAGAGAGCTAG) | 0.402 |
| AACAGCTCTTGGGTTCTAACCTGTTGCCT (site AACAGTTCTAG) | 0.15 |
